# Reference: US12180187B2, “1-phenyl-5-azinylpyrazolyl-3-oxyalkyl acids and their use for controlling unwanted plant growth” (BAYER AKTIENGESELLSCHAFT, priority 2019, dated 2024)
# Experiments:
# [1] = tested on: ABUTH; test: Post-emergence action against ABUTH, 1.28 kg/ha; type: in vivo, Abutilon theophrasti; conditions: dosage 1280 g/ha, visual rating about 3 weeks after treatment vs untreated controls (100% = plants died)
# In short: (§1)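 Visual rating against untreated plants about 3 weeks after spraying gives % activity, where 0% means like controls and 100% means plants died. Plants were treated post-emergence at the one-leaf stage with compound formulated as wettable powder or emulsion concentrate, applied at 600 L water/ha plus 0.5% additive.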
# [2] = tested on: AMARE; test: Post-emergence action against AMARE, 1.28 kg/ha; type: in vivo, Amaranthus retroflexus; conditions: dosage 1280 g/ha, visual rating about 3 weeks after treatment vs untreated controls (100% = plants died)
# In short: as §1
# [3] = tested on: DIGSA; test: Pre-emergence action against DIGSA, 1280 g/ha; type: in vivo, Digitaria sanguinalis; conditions: visual scoring after about 3 weeks vs untreated controls, 100% = plants have died, 0% = like control plants
# In short: (§2)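 Pre-emergence pot test: seeds in sandy loam, soil-covered, sprayed on soil surface (WP/EC, 0.5% additive, 600 L/ha water); greenhouse ~3 wk; visual % effect vs untreated, 0–100%.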
# [4] = tested on: MATIN; test: Post-emergence action against MATIN, 1.28 kg/ha; type: in vivo, Tripleurospermum inodorum (Matricaria inodora); conditions: dosage 1280 g/ha, visual rating about 3 weeks after treatment vs untreated controls (100% = plants died)
# In short: as §1
# [5] = tested on: POAAN; test: Post-emergence action against POAAN, 1.28 kg/ha; type: in vivo, Poa annua; conditions: dosage 1280 g/ha, visual rating about 3 weeks after treatment vs untreated controls
# In short: as §1
# [6] = tested on: ECHCG; test: Pre-emergence action against ECHCG, 1280 g/ha; type: in vivo, Echinochloa crus-galli; conditions: visual scoring after about 3 weeks vs untreated controls, 100% = plants have died, 0% = like control plants
# In short: as §2
# [7] = tested on: VERPE; test: Post-emergence action against VERPE, 1.28 kg/ha; type: in vivo, Veronica persica; conditions: dosage 1280 g/ha, visual rating about 3 weeks after treatment vs untreated controls (100% = plants died)
# In short: as §1
# [8] = tested on: DIGSA; test: Post-emergence action against DIGSA, 1.28 kg/ha; type: in vivo, Digitaria sanguinalis; conditions: dosage 1280 g/ha, visual rating about 3 weeks after treatment vs untreated controls
# In short: as §1
# [9] = tested on: LOLRI; test: Pre-emergence action against LOLRI, 1280 g/ha; type: in vivo, Lolium rigidum; conditions: visual scoring after about 3 weeks vs untreated controls, 100% = plants have died, 0% = like control plants
# In short: as §2
# [10] = tested on: VERPE; test: Pre-emergence action against VERPE, 1280 g/ha; type: in vivo, Veronica persica; conditions: scored visually after about 3 weeks vs untreated controls (100% = plants have died)
# In short: as §2
# [11] = tested on: ABUTH; test: Pre-emergence action against ABUTH, 1280 g/ha; type: in vivo, Abutilon theophrasti; conditions: scored visually after about 3 weeks vs untreated controls (100% = plants have died)
# Source text: 1. Pre-Emergence Herbicidal Effect and Crop Plant Compatibility a) Seeds of mono- and dicotyledonous weed plants are placed in plastic pots in sandy loam soil (doubly sown with one species each of mono- or dicotyledonous weed plants per pot) and covered with soil. The compounds of the invention, formulated in the form of wettable powders (WP) or as emulsion concentrates (EC), are then applied onto the surface of the covering soil as aqueous suspension or emulsion with addition of 0.5% additive at a water application rate equivalent to 600 litres per hectare. After the treatment, the pots are placed in a greenhouse and kept under good growth conditions for the trial plants. After about 3 weeks, the effect of the preparations is scored visually in comparison with untreated controls as percentages. For example, 100% activity=the plants have died, 0% activity=like control plants. 1. Pre-Emergence Effectiveness Tables 1 to 12 below show the effects of selected compounds of the general formula (I) according to Tables 1 and 2 on various harmful plants and at an application rate corresponding to 1280 g/ha, which were obtained by the experimental procedure mentioned above.
# [12] = tested on: KCHSC; test: Pre-emergence action against KCHSC, 1280 g/ha; type: in vivo, Bassia scoparia; conditions: scored visually after about 3 weeks vs untreated controls (100% = plants have died)
# In short: as §2
# [13] = tested on: STEME; test: Pre-emergence action against STEME, 1280 g/ha; type: in vivo, Stellaria media; conditions: scored visually after about 3 weeks vs untreated controls (100% = plants have died)
# In short: as §2
# [14] = tested on: SETVI; test: Pre-emergence action against SETVI, 1280 g/ha; type: in vivo, Setaria viridis; conditions: visual scoring after about 3 weeks vs untreated controls, 100% = plants have died, 0% = like control plants
# In short: as §2
# [15] = tested on: ALOMY; test: Post-emergence action against ALOMY, 1.28 kg/ha; type: in vivo, Alopecurus myosuroides; conditions: dosage 1280 g/ha, visual rating about 3 weeks after treatment vs untreated controls
# In short: as §1
# [16] = tested on: ALOMY; test: Pre-emergence action against ALOMY, 1280 g/ha; type: in vivo, Alopecurus myosuroides; conditions: visual scoring after about 3 weeks vs untreated controls, 100% = plants have died, 0% = like control plants
# In short: as §2
# [17] = tested on: STEME; test: Post-emergence action against STEME, 1.28 kg/ha; type: in vivo, Stellaria media; conditions: dosage 1280 g/ha, visual rating about 3 weeks after treatment vs untreated controls (100% = plants died)
# In short: as §1
# [18] = tested on: POAAN; test: Pre-emergence action against POAAN, 1280 g/ha; type: in vivo, Poa annua; conditions: visual scoring after about 3 weeks vs untreated controls, 100% = plants have died, 0% = like control plants
# In short: as §2
# [19] = tested on: AMARE; test: Pre-emergence action against AMARE, 1280 g/ha; type: in vivo, Amaranthus retroflexus; conditions: scored visually after about 3 weeks vs untreated controls (100% = plants have died)
# In short: as §2
# [20] = tested on: ECHCG; test: Post-emergence action against ECHCG, 1.28 kg/ha; type: in vivo, Echinochloa crus-galli; conditions: dosage 1280 g/ha, visual rating about 3 weeks after treatment vs untreated controls
# In short: as §1
# [21] = tested on: MATIN; test: Pre-emergence action against MATIN, 1280 g/ha; type: in vivo, Tripleurospermum inodorum (Matricaria inodora); conditions: scored visually after about 3 weeks vs untreated controls (100% = plants have died)
# In short: as §2
# [22] = tested on: SETVI; test: Post-emergence action against SETVI, 1.28 kg/ha; type: in vivo, Setaria viridis; conditions: dosage 1280 g/ha, visual rating about 3 weeks after treatment vs untreated controls
# In short: as §1
# [23] = tested on: KCHSC; test: Post-emergence action against KCHSC, 1.28 kg/ha; type: in vivo, Bassia scoparia; conditions: dosage 1280 g/ha, visual rating about 3 weeks after treatment vs untreated controls (100% = plants died)
# In short: as §1
# [24] = tested on: LOLRI; test: Post-emergence action against LOLRI, 1.28 kg/ha; type: in vivo, Lolium rigidum; conditions: dosage 1280 g/ha, visual rating about 3 weeks after treatment vs untreated controls
# In short: as §1
SMILES,Post-emergence action against ABUTH [1] [%],Post-emergence action against AMARE [2] [%],Pre-emergence action against DIGSA [3] [%],Post-emergence action against MATIN [4] [%],Post-emergence action against POAAN [5] [%],Pre-emergence action against ECHCG [6] [%],Post-emergence action against VERPE [7] [%],Post-emergence action against DIGSA [8] [%],Pre-emergence action against LOLRI [9] [%],Pre-emergence action against VERPE [10] [%],Pre-emergence action against ABUTH [11] [%],Pre-emergence action against STEME [13] [%],Pre-emergence action against SETVI [14] [%],Post-emergence action against ALOMY [15] [%],Post-emergence action against STEME [17] [%],Pre-emergence action against POAAN [18] [%],Pre-emergence action against AMARE [19] [%],Post-emergence action against ECHCG [20] [%],Pre-emergence action against MATIN [21] [%],Post-emergence action against KCHSC [23] [%],other results
O=C(COc1nn(-c2ccccc2F)c(-c2ccc(F)nc2)c1Br)NS(=O)(=O)CC(F)(F)F [Example X-003],90,90,100,100,100,100,90,100,100,100,90,100,100,100,90,100,100,90,100,–,Pre-emergence action against KCHSC [12]: 90%; Pre-emergence action against ALOMY [16]: 90%
O=C(O)C1CCCN1C(=O)COc1nn(-c2ccccc2F)c(-c2cncc(F)c2)c1Br (stereo not drawn) [Example X-039],100,90,90,100,100,90,100,90,90,100,90,90,90,90,100,100,100,90,100,90,Post-emergence action against SETVI [22]: 100%; Pre-emergence action against KCHSC [12]: 100%; Pre-emergence action against ALOMY [16]: 90%
C=CCNC(=O)COc1nn(-c2ccccc2F)c(-c2cncnc2)c1Br [IX-001],90,–,100,90,–,90,100,100,100,100,100,100,100,–,100,100,100,90,100,90,Pre-emergence action against KCHSC [12]: 100%
O=C(O)COc1nn(-c2ccccc2F)c(-c2ccc(F)nc2)c1Br [VI-003],90,90,100,100,100,100,90,100,90,100,90,90,100,–,–,100,100,100,100,90,Post-emergence action against SETVI [22]: 100%; Pre-emergence action against ALOMY [16]: 90%
O=C(O)COc1nn(-c2ccccc2F)c(-c2ccc(F)nc2)c1C(F)(F)F [VII-030],90,90,90,–,100,90,90,–,100,90,90,100,100,100,100,100,100,100,90,90,Pre-emergence action against KCHSC [12]: 90%
COC(=O)COc1nn(-c2c(F)cccc2F)c(-c2ccc(F)nc2)c1C#N [VII-061],90,90,100,100,100,100,100,100,100,100,90,100,100,100,100,100,100,100,100,90,Post-emergence action against SETVI [22]: 90%; Post-emergence action against LOLRI [24]: 100%; Pre-emergence action against ALOMY [16]: 100%
COC(=O)COc1nn(-c2c(F)cccc2F)c(-c2ccc(F)nc2)c1Br [VII-109],100,100,100,100,100,100,100,100,100,100,90,100,100,100,100,100,100,100,100,90,Post-emergence action against SETVI [22]: 100%; Post-emergence action against LOLRI [24]: 100%; Pre-emergence action against ALOMY [16]: 100%
